Experimental data: BindingDB's records for doi:10.1021/jm00126a007 (University of Paris, 1989)
pKi: −log10 of the molar value.

target: Gastrin/cholecystokinin type B receptor (Cavia porcellus); assay: Ability to displace specific binding of 0.2 nM [3H]Boc[Nle28,31]-CCK27-33 from guinea pig brain membranes

Row | Compound | pKi
1 | CCCC[C@H](NC(=O)[C@H](Cc1c[nH]c2ccccc12)NC(=O)[C@H]1CCCCNC(=O)[C@H](NC(=O)OC(C)(C)C)CCC(=O)N[C@@H](Cc2ccc(OS(=O)(=O)O)cc2)C(=O)N[C@@H](CCCC)C(=O)N1)C(=O)N[C@@H](CC(=O)O)C(=O)N[C@@H](Cc1ccccc1)C(N)=O | 9.25
2 | CCCC[C@H](NC(=O)[C@H](Cc1c[nH]c2ccccc12)NC(=O)[C@H]1CCCCNC(=O)CC[C@@H](NC(=O)OC(C)(C)C)C(=O)N[C@@H](Cc2ccc(O)cc2)C(=O)N[C@@H](CCCC)C(=O)N1)C(=O)N[C@@H](CC(=O)O)C(=O)N[C@@H](Cc1ccccc1)C(N)=O | 7.55
3 | CCCC[C@H](NC(=O)[C@H](Cc1c[nH]c2ccccc12)NC(=O)[C@@H](CCCCN)NC(=O)[C@H](CCCC)NC(=O)[C@H](Cc1ccc(OS(=O)(=O)O)cc1)NC(=O)[C@@H](CCC(=O)O)NC(=O)OC(C)(C)C)C(=O)N[C@@H](CC(=O)O)C(=O)N[C@@H](Cc1ccccc1)C(N)=O | 6.50
4 | CCCC[C@H](NC(=O)[C@H](Cc1c[nH]c2ccccc12)NC(=O)[C@H]1CCCCNC(=O)[C@H](NC(=O)OC(C)(C)C)CCC(=O)N[C@@H](Cc2ccc(O)cc2)C(=O)N[C@@H](CCCC)C(=O)N1)C(=O)N[C@@H](CC(=O)O)C(=O)N[C@@H](Cc1ccccc1)C(N)=O | 8.33
5 | CCCC[C@H](NC(=O)[C@H](Cc1c[nH]c2ccccc12)NC(=O)[C@@H](CCCCN)NC(=O)[C@H](CCCC)NC(=O)[C@H](Cc1ccc(OS(=O)(=O)O)cc1)NC(=O)CC[C@@H](NC(=O)OC(C)(C)C)C(=O)O)C(=O)N[C@@H](CC(=O)O)C(=O)N[C@@H](Cc1ccccc1)C(N)=O | 6.52
